Measured values reported in patent US20050074404A1, “Methods for avoiding renal injury” (Pfizer Inc., priority 2002, published 2005).

Key:
[1] = Urinary retinol concentrations in rats (HPLC); assay type: in vivo, rat; conditions: 100 mg/kg intramuscular once per day, 24 h urine
Method: A. Dosing of Mammals, Collection and Storage of Urine
(§1) Male Sprague Dawley rats (105-125 grams each) were purchased from Charles River (Kingston, N.Y.). […] Rats were dosed intramuscular, using a 25 gauge tuberculin syringe. The animals were housed individually prior to urine collection. For the urine collection, rats were transferred to individual metabolism cages. At all times throughout the study, the animals had free access to food and water. […] Rats were dosed once per day for the duration of 1, 4 or 9 days. Urine was collected after one dose, four doses and nine doses. Each collection period was for 24 hours. Urine was collected, chilled to approximately 4° C. and protected from light. Total urine volume was measured at the end of each collection period prior to retinol analysis. The urine was stored at −80° C. and in darkness to protect the components of the urine from oxidation and degration until analysis.
B. Measurement of Retinol in Urine Samples
The acetonitrile, methanol, isopropanol and tetrahydrofuran (THF) were purchased from J. T. Baker (Phillipsburg, N.J.). The acetonitrile and methanol were HPLC grade and the isopropanol and THF were ACS reagent grade. The water in the mobile phase came from a Nanopure® water filtration system (Barnstead, Dubuque, Ind.). Retinol and retinol acetate standards were purchased from ICN Biomedicals (Costa Mesa, Calif.). The retinol palmitate was purchased from Sigma Chemicals (St. Louis, Mo.).
The HPLC instrumentation consisted of a Hewlett-Packard Model 1090 Series II system (Hewlett Packard Company, Palo Alto, Calif.) equipped with a tertiary gradient pump, diode array detector, and a cooled auto-sampler. Hewlett-Packard Chemstation™ software (Rev. 5.02) was used for data collection and analysis. Absorbance data for all retinols was collected at a wavelength of 340 nm. All separations were carried out on a 15 cm×2.0 mm, 5μ particle size, Prodigy ODS (2) HPLC column (Phenomenex, Torrance, Calif.). The column was equipped with an inlet filter, 0.5μ×1.5 mm (Phenomenex, Torrance, Calif.). […]

[2] = Urinary albumin concentrations in rats; assay type: in vivo, rat; conditions: 100 mg/kg once per day
Method: as §1

rat kidney [3] = experiment: Histopathology of rat kidney (H & E); assay type: in vivo
Source text: (§2) The physiological events that characterize the onset of phospholipidosis are well known to those with skill in the art (see, for example, Girton (2002)). […] Following endocytosis, the aminoglycoside accumulates in lysosomes. The lysosomes eventually swell with excess lipid debris. When visualized using electron-microscopy, the accumulated lipid appear as phospholipid inclusions, or myelin figures, within the lysosomes (Kosek et al. (1974)) (see FIG. 1 and FIG. 2 below). The phospholipid inclusions may also be visualized by staining with Sudan black as described, for example, in Presnell and Schreibman (1997) (see FIG. 3 below). The damage to renal tissue from phospholipidosis may be visualized by histological examination using hematoxylin and eosin staining (H & E) of the renal tissue damaged through phospholipidosis. The damage that is evident includes tubular degeneration, vacuolation and eventually, in advanced stages of damage, necrosis of the renal proximal tubule (see FIG. 5 and FIG. 6 below).
as §1

rat kidney [4] = experiment: Sudan black staining of rat kidney for phospholipids; assay type: in vivo
Source text: as §2, §1

rat proximal tubule = experiment: Electron microscopy of rat proximal tubule; assay type: in vivo; conditions: four days of treatment with 100 mg/kg
Source text: as §2
Male Sprague Dawley rats (105-125 grams each) were purchased from Charles River (Kingston, N.Y.). […] Rats were dosed intramuscular, using a 25 gauge tuberculin syringe. The animals were housed individually prior to urine collection. […] Total urine volume was measured at the end of each collection period prior to retinol analysis. […]

## Gentamicin sulfate
[1]; Day 1, mean of eight rats
  Urinary retinol concentration: 123.57 nM
[1]; Day 4, mean of eight rats
  Urinary retinol concentration: 131.08 nM
[1]; Day 9, mean of eight rats
  Urinary retinol concentration: 2457.13 nM
[2]; Day 1, mean of eight rats
  Urinary albumin concentration: 163 µg/mL
[2]; Day 4, mean of eight rats
  Urinary albumin concentration: 354 µg/mL
[2]; Day 9, mean of eight rats
  Urinary albumin concentration: 1184 µg/mL
Rat kidney [3]; 100 mg/kg once per day
  Histopathologic effects, onset: do not begin to appear until day four
Rat kidney [3]; 100 mg/kg, Day 1, of 8 rats
  Chronic Progressive Nephropathy, slight, number of animals: 1
  Hyaline droplets, slight, number of animals: 3
  No significant findings, number of animals: 4
Rat kidney [3]; 100 mg/kg, Day 4, of 8 rats
  Chronic Progressive Nephropathy, slight, number of animals: 2
  Hyaline droplets, mild, number of animals: 1
  Hyaline droplets, slight, number of animals: 3
  Tubular degeneration (1), mild, number of animals: 2
  Tubular degeneration (1), slight, number of animals: 6
  Tubular vacuolation, mild, number of animals: 3
  Tubular vacuolation, slight, number of animals: 3
Rat kidney [3]; 100 mg/kg, Day 9, of 8 rats
  Hyaline droplets, mild, number of animals: 4
  Hyaline droplets, slight, number of animals: 1
  Tubular degeneration/necrosis/regeneration (3), marked, number of animals: 6
  Tubular degeneration/necrosis/regeneration (3), severe, number of animals: 2
  Tubular vacuolation, mild, number of animals: 2
  Tubular vacuolation, moderate, number of animals: 4
  Tubular vacuolation, slight, number of animals: 1
Rat kidney [3]; four days of treatment with 100 mg/kg
  Rat kidney tissue histology (FIG. 5): early lesions formation
Rat kidney [3]; nine days of treatment with 100 mg/kg
  Rat kidney tissue histology (FIG. 6): extensive kidney tissue damage
Rat kidney [4]; 100 mg/kg once per day
  Significant Sudan black staining, onset: not observed until day four
Rat kidney [4]; 100 mg/kg, Day 1, of 8 rats
  Sudan black staining negative, number of animals: 3
  Sudan black staining slight, number of animals: 5
Rat kidney [4]; 100 mg/kg, Day 4, of 8 rats
  Sudan black staining mild, number of animals: 1
  Sudan black staining mild-moderate, number of animals: 2
  Sudan black staining moderate, number of animals: 2
  Sudan black staining moderate-marked, number of animals: 3
Rat kidney [4]; 100 mg/kg, Day 9, of 8 rats
  Sudan black staining marked, number of animals: 1
  Sudan black staining mild, number of animals: 1
  Sudan black staining mild-moderate, number of animals: 1
  Sudan black staining moderate, number of animals: 2
  Sudan black staining moderate-marked, number of animals: 3
Rat kidney [4]; after a single dose (100 mg/kg)
  Sudan black staining: slight staining
Rat proximal tubule
  Electron-micrograph finding in rat proximal tubule (FIG. 1): phospholipid inclusions or myelin figures
